Measurements from US20250368959A1, “COMPOSITIONS AND METHODS FOR DIFFERENTIATING STEM CELLS INTO NK CELLS” (CRISPR THERAPEUTICS AG, priority 2022, published 2025).

Key:
Type in all cases: cell-based, human
CD45^+CD56^+ cells = test: Effect of CHIR-99021 concentration in NK-MED-005 medium on iNK induction; conditions: 2.5, 3.5 or 4.5 μM in NK-MED-005c, AP2.0, day 20
Method: To determine the optimal concentration of CHIR-99021, different concentrations (2.5 μM, 3.5 μM or 4.5 μM) were added to the NK-MED-005c medium (Table 30) to test their effect on iNK induction. Differentiation proceeded according to Protocol 2 (AP2.0) as described in Example 11. Cells were collected and analyzed using flow cytometry to detect CD45^+CD56^+ cells at differentiation day 20.

CD56^+ cells = test: CD45/CD56 expression on day 28 after iPSC-HSPC differentiation optimization
Method: For iPSC-HSPC differentiation optimization, CD45/CD56 expression on day 28 was measured (FIG. 10). The HSPC cells on day 6 were further differentiated to iNK in the StemPro-34-based differentiation media Table 12) in the presence of IL7, IL15, SCF. Flt3lFlt3l, (IL3 was added for days 6-14 only). […] However, it was not an optimal condition as the single cells production and expansion was lower than in conditions in the presence of Activin A molecule (data not shown). Due to low CD56^+ cells formation on day 28, the HSPC to iNK differentiation conditions was optimized.

[1] = tested on: blood lineage markers, CD33; test: Effect of WNT-C59 in NK-MED-006 medium on iNK induction; conditions: 2 μM in NK-MED-006, AP2.0, day 20 cultures
Method: The effect of including WNT-C59 (2 μM) in NK-MED-006 medium during iNK induction using the AP2.0 protocol was examined. […] The addition of WNT-C59 increased proportion of cells expressing non-NK lineage markers.

[2] = tested on: iNK cell induction from HSPC; test: Design of Experiment (DoE) I and β-mercaptoethanol test, day 6 to day 20; conditions: for direction of effect in DoE I: differentiation and cell number at day 20
Method: A design of Experiment (DoE) study was performed to determine the concentrations of zinc sulfate, β-mercaptoethanol, human serum, and glucose that would provide the most differentiation and increased number of cells at differentiation day 20. These factors were selected based on known chemical/biological effects of them in affect general cell proliferation and differentiation. Potential positive/negative involvement of β-mercaptoethanol, zinc ion, human serum, and glucose in NK cell or lymphocyte cell proliferation, killer cell receptor function, and cytotoxicity have been previously reported. There were no known studies conducted on testing optimal range of these factors in NK cell induction from HSPC.
To determine the effects of β-mercaptoethanol on differentiation, CD45+ and CD56+ expression was measured in cells cultured in Stempro34 media, DMEM/F12 media with low zinc, low human serum, and no β-mercaptoethanol (bME), or DMEM/F12 media with low zinc, low human serum, and 50 μM β-mercaptoethanol.
A second DoE experiment (DoE II) was subsequently performed to further optimize the concentrations of zinc, β-mercaptoethanol, human serum albumin, and glucose.

CD45^+/CD56^+ cells = test: Stage II base media comparison (Stempro34 vs DMEM/F12 and others), Day 21 single cells
Method: This Example investigates the use of various alternative base media that can be used for Stage II differentiation. […] The HSPC to iNK differentiation from day 6 further on was done in StemPro-34-based media (Table 12). […] In this Example, the […] until day 6 as described in Example 2 (i.e., steps 1-5). Each media was supplemented with 20 ng/mL IL7, 20 ng/mL IL15, 20 ng/mL SCF, 20 ng/mL Flt3lFlt3l and 5 ng/mL of IL-3 for days 6-14 and 20 ng/mL IL7, 20 ng/mL IL15, 20 ng/mL SCF, 20 ng/mL Flt3lFlt3l for days 14-21 of differentiation.
Day 21 single cells were profiled for CD45^+/CD56^+, CD56^+/NKG2D^+, CD56^+/CD94^+, and CD56^+/CD16^+ expression (FIG. 12). […] The DMEM/F12 2:1 basal media was chosen due to its price and higher availability for scale up production.

`Cc1cnc(-c2cnc(NCCNc3ccc(C#N)cn3)nc2-c2ccc(Cl)cc2Cl)[nH]1` [CHIR-99021, 6-[[2-[[4-(2,4-Dichlorophenyl)-5-(5-methyl-1H-imidazol-2-yl)-2-pyrimidinyl]amino]ethyl]amino]-3-pyridinecarbonitrile] was tested, and the “amount giving the highest proportion of CD45^+CD56^+ cells” value (CD45^+CD56^+ cells) was “moderate amount”, the “single cells production and expansion” value (CD56^+ cells; CHIR-99021 alone versus conditions with Activin A, data not shown) was “lower” and the “CD56^+ percentage, rank among conditions” value (CD56^+ cells; day 28, StemPro-34-based media, condition #5) was “highest CD56^+ percentage”.
For `Cc1cc(-c2ccc(CC(=O)Nc3ccc(-c4cccnc4)cc3)cc2)ccn1` [WNT-C59], the “proportion of cells expressing non-NK lineage markers” value [1] was “increased” and the “proportion of iNK that expressed the myeloid progenitor marker CD33” value [1] was “altered”.
In the case of `O=S(=O)([O-])[O-].[Zn+2]` [Zinc sulfate], the “direction of effect in DoE I” value [2] is reported as “positive effect”.
In the case of `OCCS` [β-mercaptoethanol], the “CD45^+/CD56^+ cells” value (CD45^+/CD56^+ cells; StemPro34, bME 55 μM, 1 μM, 0 μM (samples #1, #2, #3), day 21) is reported as 60% to 90%, the “effect on iNK differentiation” value (CD45^+/CD56^+ cells; StemPro-based media, day 6 to day 21) is reported as “prevented iNK differentiation” and the “effect on iNK cell induction (CD45+, CD56+ expression)” value ([2]; 50 μM in DMEM/F12 with low zinc, low human serum) is reported as “negative effect”. The “direction of effect in DoE I” value [2] was “negative effect”.
